Marks after values point to notes of the source that are not given here.
What was measured:
CD34^+ cells = assay: Cell phenotyping of CD34+ liquid cultures by flow cytometry (CD34, CD33, CD15, CD41); format: cell-based, human; details: day 14; seeded at 50,000 cells/well; ARP 2 nM, cortisol 1.2 μM, ASP 2 nM, SCF 50 ng/ml, AS1 20 pM, PBAN 2 nM
Text: Cell Source: UCB was collected, following informed consent of the parents and with the approval of the Sourasky Medical Center Ethics Committee, as previously described [Grisaru et al. (1999a) Am. J. Obstet. Gynecol, 180, 1240–1243]. Following 1:1 (v/v) dilution in Iscove's modified Dulbecco medium (IMDM, Beit Haemek, Israel), mononuclear cells were separated using 3% gelatin (Difco, Detroit, Mich.) and Ficoll-Hypaque gradients (<1.077 g/ml; Pharmacia, Uppsala, Sweden) [Pick et al. (1998) Br. J. Haematol. 103, 639–50]. CD34^+ cells were enriched using CD34 immunoglobulin-coated magnetic beads (CD34 progenitor cell selection system, Dynal, Norway).CD34^+ cells analysis was performed by flow cytometry (Becton Dickinson Immunocytochemistry System Inc., San Jose, Calif.), using CD34-PE (Becton Dickinson Immunocytometry System, Inc.) and CD45-FITC (Dako, Glostrup, Denmark) monoclonal antibodies. […] Liquid Cultures: UCB CD34^+ cells were set for liquid cultures at a concentration of 10^5/mL in IMDM, containing 10% autologous plasma, 2 mM L-glutamine (Sigma Chemical Co., St Louis, Mo.), penicillin ([…]), streptomycin ([…]), amphotericin B (2×10^−5 M) (Sigma Chemical Co.), and heparin (20 IU/mL, Gibco, Grand Island, N.Y.), all in a fully humidified atmosphere at 37° C. and 5% CO2. The following elements were added where noted: • 1. […] Endothlial Growth factors: Epidermal growth factor (EGF 10 ng/ml, Sigma Chemical Co.), basic Fibroblast growth factor (bFGF 20 ng/ml, Sigma Chemical Co.) incubated in a serum free medium (SFM) for 48 hr. • 3. Stress mimicking conditions: Hydrocortisone sodium succinate (Abic Ltd., Netanya, Israel) at concentrations equivalent to normal, intermediate and stress serum cortisol levels (0.1, 0.6 and 1.2 μM, respectively (De Vroede et al., Arch. Des. […] Antisense oligonucleotides: 3′-terminal 2′-O-Methylated 15- and 20-mer oligodeoxynucleotides in the antisense (AS) orientation, targeted against the common sequence domain in human AChEmRNA and BuChE mRNA, as control, […], as detailed elsewhere [Grisaru et al. (1999b) Mol. Cell. Biol. 19, 788–95]. • 5. AChE C-terminal peptides: The following C-terminal peptides of the AChE synaptic (ASP, also denoted SEQ ID: No. 2) and readthrough (ARP, also denoted SEQ ID: No. 1) isoforms were synthesized using a 433A peptide synthesizer (PE Applied Biosystems, Inc., Norwalk, Conn.). • ASP: 1-[…]-40, also denoted as SEQ ID: No. 2. • ARP: 1-[…]-26, also denoted as SEQ ID: No. 1.
Culture Analyses: Twenty-four hr liquid cultures served for cytochemical staining, in situ hybridization, and cell proliferation assay by 5-bromo-2′-deoxy-Uridine (BrdU) incorporation [Grisaru et al. (1999b) id ibid.]. Twenty-eight day liquid cultures were sampled every 6–8 days for viable cell counting (using trypan blue dye exclusion), cell phenotyping (CD34^+, CD33^+ and CD41^+ quantification using flow cytometry, with CD34-PE, CD33-FITC (Immunotech/Coulter, Hialeah, Fla.), CD41-FITC (Immunoquality Products, Groningen, Netherlands) and CD45-FITC monoclonal antibodies), and growth of progenitor colony (granulocyte-macrophage and megakaryocytic), using previously described techniques (Pick et al. (1998) id ibid.). […] 11, 1049–57]. Nuclear staining w with 4′,6-diamidino-2- phenylindole [DAPI, see e.g., Peterson et al. (1999) Genetics 152, 427–439].

developing mouse brain = assay: BrdU labeling in developing brain after injection of pregnant mouse; format: in vivo; details: peptide 0.1 mg/Kg into pregnant mouse; BrdU 24 hr later
Text: After 1 hr the embryo was isolated and fixed.
Embryonic neuroepithelial cells have one of two fates: (1) to continue proliferation and migration up and down from the ventricular zone up to the cortical plate, or (2) to quit the proliferative cycle and initiate terminal differentiation. The balance between these two processes determines the number of proliferating neuronal progenitors as well as the thickness of the cortical plate where post-mitotic neurons accumulate (see scheme at FIG. 10).

## ASP (DTLDEAERQWKAEFHRWSSYMVHWKNQFDHYSKQDRCSDL)
CD34^+ cells
  CD33^+ (early myeloids): 10.0 cells per culture × 10^−3
  CD33^+ and CD15^+ (total myeloids): 13.0 cells per culture × 10^−3
  CD34^+ (early progenitors): 7.2 cells per culture × 10^−3
  CD41^+ (megakaryocytes): 4.6^b cells per culture × 10^−3
Developing mouse brain
  neuronal proliferation (BrdU labeled nuclei) in embryonic brain: minor positive effect

Reference: patent US7067486B2, “Acetylcholinesterase-derived peptides and uses thereof” (priority 1999, dated 2006)
